Experimental data published in ChEMBL document CHEMBL1137202, “Synthesis and biological activity of new potential agonists for the human adenosine A2A receptor” (J Med Chem, 2004).

Experiments:
Cavia porcellus [1] = species: Cavia porcellus; assay: Concentration-Relaxation Studies was exerted on Guinea Pig Tracheal Rings Precontracted by Carbachol by the compound in presence of Adenosine antagonist 8-PT ( E-4 M); assay type: functional, organism-based; details: Trachea
Cavia porcellus [2] = species: Cavia porcellus; assay: Concentration-Relaxation Studies was exerted on Guinea Pig Tracheal Rings Precontracted by Carbachol by the compound in presence of Adenosine antagonist DMPX ( E-4 M); assay type: functional, organism-based; details: Trachea
Cavia porcellus [3] = species: Cavia porcellus; assay: Concentration-Relaxation Studies was exerted on Guinea Pig Tracheal Rings Precontracted by Carbachol by the compound in presence of Adenosine antagonist Alloxazine ( E-4 M); assay type: functional, organism-based; details: Trachea
Cavia porcellus [4] = species: Cavia porcellus; assay: Concentration-Relaxation Studies was exerted on Guinea Pig Tracheal Rings Precontracted by Carbachol by the compound in presence of Adenosine antagonist CSC ( E-4 M); assay type: functional, organism-based; details: Trachea
Adenosine receptor A2a [5] = molecular target: T1, Adenosine receptor A2a (Homo sapiens, UniProt P29274)
Description: Potency against cAMP formation in CHO cells expressing recombinant human A2A receptor

Adenosine receptor A3 = molecular target: T2, Adenosine receptor A3 (Homo sapiens, UniProt P0DMS8); assay: Inhibition of [3H]NECA binding to human adenosine A3 receptor expressed in HeLa cells; assay type: cell-based
T2 sequence (P0DMS8 whole entry): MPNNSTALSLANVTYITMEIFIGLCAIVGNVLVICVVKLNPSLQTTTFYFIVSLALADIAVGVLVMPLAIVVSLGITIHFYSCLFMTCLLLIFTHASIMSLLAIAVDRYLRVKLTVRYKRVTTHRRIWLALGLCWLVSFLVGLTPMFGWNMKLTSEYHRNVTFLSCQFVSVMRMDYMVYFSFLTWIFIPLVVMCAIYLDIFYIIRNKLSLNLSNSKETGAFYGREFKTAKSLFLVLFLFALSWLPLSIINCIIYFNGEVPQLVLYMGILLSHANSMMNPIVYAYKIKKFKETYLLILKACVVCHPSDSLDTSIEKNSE

Adenosine receptor A2a [6] = molecular target: Adenosine receptor A2a (Rattus norvegicus, UniProt P30543)
Description: Efficacy against phenylephrine precontracted tissue relaxation in rat aorta

Adenosine receptor A2a [7] = molecular target: T1, Adenosine receptor A2a; assay: biochemical
Description: Inhibition of [3H]ZM-241385 binding to human adenosine A2A receptor expressed in HeLa cells

Adenosine receptor A1 = molecular target: T3, Adenosine receptor A1 (Homo sapiens, UniProt P30542); assay: Inhibition of [3H]DPCPX binding to human adenosine A1 receptor expressed in CHO cells; assay type: cell-based
T3 sequence (P30542 whole entry): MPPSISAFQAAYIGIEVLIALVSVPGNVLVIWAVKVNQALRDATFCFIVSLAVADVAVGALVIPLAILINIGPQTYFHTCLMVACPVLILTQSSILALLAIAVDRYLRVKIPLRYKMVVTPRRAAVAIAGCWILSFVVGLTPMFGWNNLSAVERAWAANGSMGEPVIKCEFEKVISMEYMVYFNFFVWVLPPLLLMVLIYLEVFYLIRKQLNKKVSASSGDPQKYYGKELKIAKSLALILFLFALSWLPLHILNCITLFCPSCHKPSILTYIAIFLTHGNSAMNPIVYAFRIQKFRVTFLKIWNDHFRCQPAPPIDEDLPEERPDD

Adenosine receptor A2b [8] = molecular target: T4, Adenosine receptor A2b (Homo sapiens, UniProt P29275); assay: Inhibition of [3H]DPCPX binding to human adenosine A2B receptor expressed in HEK293 cells; assay type: cell-based
T4 sequence (P29275 whole entry): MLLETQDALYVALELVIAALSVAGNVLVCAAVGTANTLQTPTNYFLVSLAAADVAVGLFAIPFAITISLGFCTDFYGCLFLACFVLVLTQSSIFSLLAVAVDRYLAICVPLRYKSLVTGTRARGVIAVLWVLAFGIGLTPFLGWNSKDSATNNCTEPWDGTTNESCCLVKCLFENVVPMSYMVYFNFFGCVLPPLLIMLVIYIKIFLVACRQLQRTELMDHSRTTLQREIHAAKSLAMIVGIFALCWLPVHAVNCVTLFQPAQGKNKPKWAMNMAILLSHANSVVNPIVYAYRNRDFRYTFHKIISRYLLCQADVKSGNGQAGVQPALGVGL

Adenosine receptor A2b [9] = molecular target: T4, Adenosine receptor A2b; assay: Potency against cAMP formation in CHO cells expressing recombinant human A2B receptor; assay type: functional, cell-based
[10] = molecular target: Adenosine receptor A2b (Cavia porcellus); assay: Relative efficacy against phenylephrine precontracted tissue relaxation in Guinea pig aorta
[11] = tested on: Adenosine receptor A2b (Cavia porcellus); assay: Relative efficacy against phenylephrine precontracted tissue relaxation in Guinea pig aorta compared to NECA

T1 sequence (P29274 whole entry): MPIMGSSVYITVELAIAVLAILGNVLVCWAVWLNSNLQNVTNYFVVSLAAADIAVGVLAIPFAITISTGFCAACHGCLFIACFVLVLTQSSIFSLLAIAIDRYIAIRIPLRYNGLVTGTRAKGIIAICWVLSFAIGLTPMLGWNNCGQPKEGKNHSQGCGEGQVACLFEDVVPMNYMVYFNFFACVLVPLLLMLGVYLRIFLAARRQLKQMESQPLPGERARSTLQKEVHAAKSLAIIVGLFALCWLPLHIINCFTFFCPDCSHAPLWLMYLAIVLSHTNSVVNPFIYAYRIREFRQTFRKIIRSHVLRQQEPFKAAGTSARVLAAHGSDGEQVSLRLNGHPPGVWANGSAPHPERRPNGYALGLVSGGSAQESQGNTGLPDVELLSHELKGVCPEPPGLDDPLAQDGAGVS
Adenosine receptor A2a (Rattus norvegicus, UniProt P30543), sequence (P30543 whole entry): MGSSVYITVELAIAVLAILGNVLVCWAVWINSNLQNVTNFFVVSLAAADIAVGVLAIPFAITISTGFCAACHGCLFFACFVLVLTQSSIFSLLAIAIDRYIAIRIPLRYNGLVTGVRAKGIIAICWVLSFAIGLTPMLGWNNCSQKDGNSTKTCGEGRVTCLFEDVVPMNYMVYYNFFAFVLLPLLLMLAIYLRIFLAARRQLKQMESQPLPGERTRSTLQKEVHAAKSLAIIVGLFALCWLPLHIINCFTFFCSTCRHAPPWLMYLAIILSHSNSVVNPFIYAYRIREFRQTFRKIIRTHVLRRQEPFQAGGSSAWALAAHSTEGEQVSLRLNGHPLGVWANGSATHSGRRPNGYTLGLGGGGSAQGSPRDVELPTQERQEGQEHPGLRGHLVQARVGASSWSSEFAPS

| Structure (SMILES) | EC50 (Cavia porcellus [1]) [nM] | EC50 (Cavia porcellus [2]) [nM] | EC50 (Cavia porcellus [3]) [nM] | EC50 (Cavia porcellus [4]) [nM] | EC50 (Adenosine receptor A2a [5]) [nM] | Ki (Adenosine receptor A3) [nM] | EC50 (Adenosine receptor A2a [6]) [nM] | Ki (Adenosine receptor A2a [7]) [nM] | Ki (Adenosine receptor A1) [nM] | Ki (Adenosine receptor A2b [8]) [nM] | EC50 (Adenosine receptor A2b [9]) [nM] | EC50 [10] [nM] | Emax [11] [%] |
| --- | --- | --- | --- | --- | --- | --- | --- | --- | --- | --- | --- | --- | --- |
| CCNC(=O)[C@H]1O[C@@H](n2cnc3c(N)ncnc32)[C@H](O)[C@@H]1O [NECA] | 65000 | 77000 | 88000 | 84000 | – | – | – | – | – | – | – | – | – |
| CCn1nnc([C@H]2O[C@@H](n3cnc4c(N)nc(N[C@H](CO)Cc5ccc(O)cc5)nc43)[C@H](O)[C@@H]2O)n1 | – | – | – | – | 8 | 140 | 2.9 | 5 | – | – | – | – | – |
| CCn1nnc([C@H]2O[C@@H](n3cnc4c(N)nc(N[C@H](CO)Cc5ccc(Cl)cc5)nc43)[C@H](O)[C@@H]2O)n1 | – | – | 38000 | 17000 | 97 | 288 | – | 270 | 670 | 2720 | 4700 | – | – |
| CCn1nnc([C@H]2O[C@@H](n3cnc4c(N)nc(N[C@H](CO)Cc5ccc([N+](=O)[O-])cc5)nc43)[C@H](O)[C@@H]2O)n1 | – | – | – | – | 3.1 | 400 | – | 48 | > 10000 | 3660 | 1200 | – | – |
| Nc1ncnc2c1ncn2[C@@H]1O[C@H](CO)[C@@H](O)[C@H]1O [ADENOSINE] | 460000 | 340000 | 550000 | 570000 | – | – | – | – | – | – | – | – | – |
| CCn1nnc([C@H]2O[C@@H](n3cnc4c(N)nc(N[C@H](CO)Cc5ccc(OC)cc5)nc43)[C@H](O)[C@@H]2O)n1 | – | 36000 | 36000 | 22000 | 1.4 | 130 | – | 38 | > 10000 | 1180 | 680 | – | – |
| CCn1nnc([C@H]2O[C@@H](n3cnc4c(N)nc(N[C@H](C)Cc5ccc(OC)cc5)nc43)[C@H](O)[C@@H]2O)n1 | – | 23000 | 15000 | 26000 | 3 | 100 | 4 | 1 | 356 | – | – | – | – |
| CCn1nnc([C@H]2O[C@@H](n3cnc4c(N)nc(N[C@H](CO)Cc5ccc(Br)cc5)nc43)[C@H](O)[C@@H]2O)n1 | – | – | – | – | 1.6 | 83 | 6.7 | 5 | 310 | 2260 | 560 | 1300 | 125 |
| CCn1nnc([C@H]2O[C@@H](n3cnc4c(N)nc(N[C@H](CO)Cc5ccccc5)nc43)[C@H](O)[C@@H]2O)n1 [GW-328267] | 64000 | 46000 | 88000 | 51000 | 8.8 | – | 10 | 46 | 369 | – | – | – | – |
